Legend:
Test in all cases: stopped-flow CO2 hydration assay, phenol red
hCA I = biological target: T1, hCA I (Homo sapiens, UniProt P00915); assay type: biochemical; conditions: read-out: KI (nM)^a / hCA I (α-CA)
T1 construct: gene CA1; recombinant, obtained in-house; cytosolic alpha-CA
Description: stopped-flow CO2 hydration assay, phenol red on hCA I

MscCA = biological target: T2, MscCA; assay type: biochemical, Mammaliicoccus sciuri; conditions: […] TRIS pH […] Na2SO4, […] h preincubation, room temperature; read-out: KI (nM)^a / MscCA (β-CA)
T2 construct: recombinant beta-CA, obtained in-house; earlier published as SauCA

StCA2 = biological target: T3, StCA2; assay type: biochemical, Salmonella enterica subsp. enterica serovar Typhimurium; conditions: […] TRIS pH […] Na2SO4, […] h preincubation, room temperature; read-out: KI (nM)^a / StCA2 (β-CA)
T3 construct: recombinant beta-CA, obtained in-house

hCA VII = biological target: T4, hCA VII (Homo sapiens, UniProt P43166); assay type: biochemical; conditions: read-out: KI (nM)^a / hCA VII (α-CA)
T4 construct: gene CA7; recombinant, obtained in-house; cytosolic alpha-CA
T4 sequence (P43166 whole entry): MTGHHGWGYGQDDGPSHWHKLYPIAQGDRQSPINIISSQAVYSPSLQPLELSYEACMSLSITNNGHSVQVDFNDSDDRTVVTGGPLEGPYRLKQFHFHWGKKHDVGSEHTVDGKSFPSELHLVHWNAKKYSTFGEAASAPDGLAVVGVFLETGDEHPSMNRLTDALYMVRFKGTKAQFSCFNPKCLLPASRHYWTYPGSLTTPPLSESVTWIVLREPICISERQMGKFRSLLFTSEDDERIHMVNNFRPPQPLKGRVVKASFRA
Description: stopped-flow CO2 hydration assay, phenol red on hCA VII

StCA1 = biological target: T5, StCA1; assay type: biochemical, Salmonella enterica subsp. enterica serovar Typhimurium; conditions: […] TRIS pH […] Na2SO4, […] h preincubation, room temperature; read-out: KI (nM)^a / StCA1 (β-CA)
T5 construct: recombinant beta-CA, obtained in-house

hCA XIII = biological target: T6, hCA XIII (Homo sapiens, UniProt Q8N1Q1); assay type: biochemical; conditions: read-out: KI (nM)^a / hCA XIII (α-CA)
T6 construct: gene CA13; recombinant, obtained in-house; cytosolic alpha-CA
T6 sequence (Q8N1Q1 whole entry): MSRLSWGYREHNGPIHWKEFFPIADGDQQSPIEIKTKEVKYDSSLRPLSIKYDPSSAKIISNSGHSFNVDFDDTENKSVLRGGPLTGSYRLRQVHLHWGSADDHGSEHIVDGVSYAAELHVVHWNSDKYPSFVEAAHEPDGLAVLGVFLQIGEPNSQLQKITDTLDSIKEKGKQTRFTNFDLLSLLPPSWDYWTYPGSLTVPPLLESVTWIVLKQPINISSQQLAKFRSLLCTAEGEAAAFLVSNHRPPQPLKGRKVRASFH
Description: stopped-flow CO2 hydration assay, phenol red on hCA XIII

hCA II = biological target: T7, hCA II (Homo sapiens, UniProt P00918); assay type: biochemical; conditions: read-out: KI (nM)^a / hCA II (α-CA)
T7 construct: gene CA2; recombinant, obtained in-house; cytosolic alpha-CA
Description: stopped-flow CO2 hydration assay, phenol red on hCA II

T1 sequence (P00915 2-261): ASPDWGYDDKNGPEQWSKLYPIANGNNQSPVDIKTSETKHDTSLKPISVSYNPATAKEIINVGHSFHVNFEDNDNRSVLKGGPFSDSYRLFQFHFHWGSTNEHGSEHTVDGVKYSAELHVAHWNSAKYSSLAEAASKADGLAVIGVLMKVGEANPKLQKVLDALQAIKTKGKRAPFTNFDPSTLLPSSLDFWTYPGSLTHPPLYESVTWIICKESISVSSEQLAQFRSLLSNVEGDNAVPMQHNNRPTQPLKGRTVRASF

CN(C#N)c1ccc(S(N)(=O)=O)cc1 [compound 8, 4-(N-Methylcyanamido)benzenesulfonamide]
Ki (hCA I): 557 nM | Ki (MscCA): 1580 nM | Ki (StCA2): 200 nM | Ki (hCA VII): 13.8 nM | Ki (StCA1): 52.7 nM | Ki (hCA XIII): 117 nM | Ki (hCA II): 29.2 nM

CCN(C#N)c1ccc(S(N)(=O)=O)cc1 [compound 9, 4-(N-Ethylcyanamido)benzenesulfonamide]
Ki (hCA I): 88.6 nM | Ki (MscCA): 3150 nM | Ki (StCA2): 367 nM | Ki (hCA VII): 17.9 nM | Ki (StCA1): 61.5 nM | Ki (hCA XIII): 476 nM | Ki (hCA II): 45.3 nM

CCCCN(C#N)c1ccc(S(N)(=O)=O)cc1 [compound 10, 4-(N-Butylcyanamido)benzenesulfonamide]
Ki (hCA I): 16.4 nM | Ki (MscCA): 4480 nM | Ki (StCA2): 426 nM | Ki (hCA VII): 1.3 nM | Ki (StCA1): 62.7 nM | Ki (hCA XIII): 70.7 nM | Ki (hCA II): 32 nM

CCCCCCN(C#N)c1ccc(S(N)(=O)=O)cc1 [compound 11, 4-(N-Hexylcyanamido)benzenesulfonamide]
Ki (hCA I): 9.3 nM | Ki (MscCA): 6880 nM | Ki (StCA2): 718 nM | Ki (hCA VII): 1.5 nM | Ki (StCA1): 54.6 nM | Ki (hCA XIII): 83 nM | Ki (hCA II): 5.3 nM

CCCCCCCN(C#N)c1ccc(S(N)(=O)=O)cc1 [compound 12, 4-(N-Heptylcyanamido)benzenesulfonamide]
Ki (hCA I): 38.2 nM | Ki (MscCA): 7190 nM | Ki (StCA2): 676 nM | Ki (hCA VII): 1.7 nM | Ki (StCA1): 58.8 nM | Ki (hCA XIII): 31.5 nM | Ki (hCA II): 7.1 nM

CCCCCCCCCCCCCCCCCCN(C#N)c1ccc(S(N)(=O)=O)cc1 [compound 13, 4-(N-Octadecylcyanamido)benzenesulfonamide]
Ki (hCA I): 17.3 nM | Ki (MscCA): 9170 nM | Ki (StCA2): 791 nM | Ki (hCA VII): 2.2 nM | Ki (StCA1): 66.1 nM | Ki (hCA XIII): 155 nM | Ki (hCA II): 9.5 nM

N#CN(c1ccc(S(N)(=O)=O)cc1)C1CCCCC1 [compound 14, 4-(N-Cyclohexylcyanamido)benzenesulfonamide]
Ki (hCA I): 50.6 nM | Ki (MscCA): 5360 nM | Ki (StCA2): 579 nM | Ki (hCA VII): 1.9 nM | Ki (StCA1): 69.5 nM | Ki (hCA XIII): 83.8 nM | Ki (hCA II): 82.3 nM

C=CCN(C#N)c1ccc(S(N)(=O)=O)cc1 [compound 15, 4-(N-Allylcyanamido)benzenesulfonamide]
Ki (hCA I): 74.7 nM | Ki (MscCA): 5100 nM | Ki (StCA2): 645 nM | Ki (hCA VII): 2.3 nM | Ki (StCA1): 51.2 nM | Ki (hCA XIII): 97.7 nM | Ki (hCA II): 54.1 nM

N#CN(Cc1ccccc1)c1ccc(S(N)(=O)=O)cc1 [compound 16, 4-(N-Benzylcyanamido)benzenesulfonamide]
Ki (hCA I): 67.3 nM | Ki (MscCA): 9360 nM | Ki (StCA2): 692 nM | Ki (hCA VII): 2 nM | Ki (StCA1): 50.7 nM | Ki (hCA XIII): 67.8 nM | Ki (hCA II): 61.4 nM

N#CN(Cc1ccc(Br)cc1)c1ccc(S(N)(=O)=O)cc1 [compound 17, 4-(N-(4-Bromobenzyl)cyanamido)benzenesulfonamide]
Ki (hCA I): 389 nM | Ki (MscCA): 9590 nM | Ki (StCA2): 750 nM | Ki (hCA VII): 2.4 nM | Ki (StCA1): 73.1 nM | Ki (hCA XIII): 53.1 nM | Ki (hCA II): 93.3 nM
